Read-outs that look alike come from different tables or passages of the source.
Experiments:
HCT116 cells = assay: Growth inhibition / cell viability assay (methylene blue), HCT116; format: cell-based, human; details: for IC50: Homo sapiens, HCT-116
Description: (§1) Cell feasibility was examined using methylene blue staining. Cells were plated at a rate of 5000/well in 96 well plates (n=3) respectively and treated the next day. Three days after treatment, cells were fixed/stained in methylene blue saturated in 50% ethanol for 30 min at room temperature. Excessive water was used to wash off extra dye from the plates.

[1] = tested on: NCI-H522 lung cancer cell line; assay: Growth inhibition / cell viability assay (methylene blue), NCI-H522; format: cell-based; details: Homo sapiens
Description: as §1

[2] = tested on: HT1080 fibrosarcoma cell line; assay: Growth inhibition assay (methylene blue), HT1080; format: cell-based; details: Homo sapiens, HT-1080, Table 4, unit inferred
Description: as §1

[3] = tested on: U2OS osteosarcoma cell line; assay: Growth inhibition assay (methylene blue), U2OS; format: cell-based; details: Homo sapiens, Table 4, unit inferred
Description: as §1

[4] = tested on: MDA-MB-468 breast cancer cell line; assay: Growth inhibition assay (methylene blue), MDA-MB-468; format: cell-based; details: Homo sapiens, Table 4, unit inferred
Description: as §1

[5] = tested on: MDA-MB-231 breast cancer cell line; assay: Growth inhibition assay (methylene blue), MDA-MB-231; format: cell-based; details: Homo sapiens, Table 4, unit inferred
Description: as §1

sixty cell lines [6] = assay: NCI 60 cell five-dose assay; format: cell-based; details: Total Growth Inhibition
PARP1 = assay: Western blot analysis of PARP1 cleavage in HCT116 cells; format: cell-based, human; details: HCT116 cells treated for 24 h; measure of caspase dependent cell death
Description: FIG. 13: Western blot analysis of PARP1 cleavage. HCT116 cells were treated with compounds 83, 84, and 85 at the indicated concentrations for 24 hr. Western blots were probed with an antibody that recognizes a cleaved form of PARP (Cell Signaling Technology 5626) as a measure of caspase dependent cell death.
To determine whether the compounds herein induced apoptosis, the enzyme Poly (ADP ribose) polymerase 1 (PARP1) was analyzed by western blotting. Caspase-dependent proteolytic cleavage of PARP1 is one of the hall marks of apoptosis and antibodies that specifically recognize the cleavage products are available. […] HCT116 cells were treated with compounds 83, 84, and 85 for 24 h.
(§2) NCI-H522 cell pellets obtained were lysed using lysis buffer containing 50 mM Tris (pH 7.4), 150 mM NaCl, 0.5% NP-40, (supplemented with 1 μg/ml aprotinin, 2 μg/ml leupeptin, 1 μg/ml pepstatin A, 1 mM DTT, and […]) for 30 minutes on ice and centrifuged at 13×10^3 g for 25 minutes at 4° C. The protein levels of the obtained lysates were normalized using BCA Protein Assay Kit (Pierce) and separated by SDS-polyacrylamide gel electrophoresis (12.5% acrylamide). Transfer to polyvinylidene difluoride membranes (Millipore) was followed by obstruction of membranes with blocking buffer containing 5% (w/v) non-fat dry milk dissolved in PBST [1×PBS containing 0.05% (v/v) Tween 20] for 1 hour at room temperature. Membranes were then incubated with corresponding primary antibodies overnight at 4° C. The membranes were then washed (3×15 min each) with PBST and incubated with secondary antibodies conjugated to horse-radish peroxidase, obtained from Biorad, and used at a dilution of 1:10,000. Bound antibodies were detected using enhanced chemiluminescence (Biorad).

[7] = S9 fraction metabolic stability assay (LC-ESI-MS); format: in vitro ADME; details: human liver S9 fraction
Source text: Previous studies established that trifluoromethyl ketones are metabolically unstable and reduced in vivo to trifluoromethyl alcohols (TFMAs). This metabolic reduction caused a major loss in activity. […] It was believed that in TFPAs, the hydrate form of the ketone is stabilized compared to TFMKs, and is therefore less susceptible to reductive metabolism. […] Metabolic stability studies are primarily conducted using liver microsomal assays, as the predominant cytochrome P450 enzymes present in them are responsible for the metabolism of most xenobiotics in the human body. However, P450 transformations are mostly oxidative in nature, precluding their use to assess the stability of ketone drugs against reductive metabolism. […] Thus, using a liver extract containing both cytosol and microsomal enzymes would be more appropriate for this assay. This was accomplished by using the S9 fraction, which is basically the supernatant obtained from centrifugation of hepatocytes at 9000 g and contains both liver cytosol and microsomal enzymes. LC-ESI-MS was used to monitor the reduction of TFPA 60 over time and it was compared with TFMK 91.
A protocol similar to the one previously employed by others using Human Liver S9 fractions instead of liver microsomes was used for the metabolism studies. The assay was initiated by incubating a mixture of the substrate (0.02 mM), buffer (0.1M), and NADPH (1 mM) at 37° C. for ten minutes, followed by addition of the S9 fraction (0.5 mg) to the mixture and gentle mixing. The total volume of the reaction mixture was maintained at 1 mL. […] The reactions in the aliquots were terminated by adding an equal volume of ethyl acetate, mixing thoroughly, and transferring into micro centrifuge tubes. They were vortexed for 2 minutes and then subjected to centrifugation at 10,000×g for 15 minutes to remove the proteins. The top organic layers were extracted and evaporated under reduced pressure. The organic residues from the aliquots were dissolved in methanol first, then diluted 1:1 with water, and analyzed using LC-ESI-MS. A 450 μL aliquot of compound 60 with concentration of 0.02 mM contains 9 nanomoles, which after evaporation, was dissolved in 500 μL of methanol to give 18 μM in concentration of 60. This was diluted 1:1 with water to give a final concentration of 9 μM, which was used for LC-ESI-MS. Similarly, 200 μL of TFMK 91 at a concentration of 0.02 mM contains 4 nanomoles, which after removing ethyl acetate, and dissolving in 250 μL of methanol gives 16 μM concentration of 91. This was diluted 1:1 with water to give 8 μM final concentration for LC-ESI-MS.
The solvent flow rate was 0.2 mL/min, and the sample injection volume was 20 μL. […]

[8] = stated in the method as reason for the sampling interval; cited from earlier work
WI38 cells = assay: Cell survival assay, normal cell line WI38; format: cell-based; details: Homo sapiens, WI-38, FIG. 14A, maximum 30 μM
Source text: (§3) This reaffirms the selectivity of TFPAs for cancer cells over normal cells.
(§4) HCT116 human colon cancer cells, NCI-H522 human lung cancer cells, HT1080 fibrosarcoma cells, HeLa cervical cancer cells, U2OS osteosarcoma cells, MDA-MB-231 and MDA-MB-468 breast cancer cells, WI38 diploid human cell line, and human retinal pigment epithelial RPE cells were preserved in Dulbecco's Modified Eagle's medium (Mediatech, Inc.) supplemented with 10% calf serum (Atlanta Biologicals) or 10% fetal bovine serum (Gemini Bio-Products #100-106) and 1000 U/ml of both Penicillin and Streptomycin (Mediatech, Inc.) at 37° C. with 5% CO2. Cell feasibility was examined using methylene blue staining. Cells were plated at a rate of 5000/well in 96 well plates (n=3) respectively and treated the next day. Three days after treatment, cells were fixed/stained in methylene blue saturated in 50% ethanol for 30 min at room temperature. Excessive water was used to wash off extra dye from the plates.

RPE cells = assay: Cell survival assay, normal cell line RPE; format: cell-based; details: Homo sapiens, FIG. 14A, maximum 30 μM
Source text: as §3, §4

sixty cell lines [9] = assay: NCI 60 cell one-dose assay; format: cell-based; details: result in words
[10] = tested on: acetyl-H3 and pan-acetyl-lysine; assay: Hyperacetylation assay by western blot; format: cell-based, human; details: […], 5, and 10 μM, dose dependent
Description: The hallmark of HDAC inhibition is the hyperacetylation of several proteins which are substrates for HDACs. Thus, histone H3 hyperacetylation assay of some active compounds was carried out by western blot using antibodies for Histone H3 and pan-acetyl lysine.
as §2

[11] = tested on: HeLa cervical cancer cell line; assay: Growth inhibition assay (methylene blue), HeLa; format: cell-based; details: Homo sapiens, Table 4, unit inferred
Description: as §1

[12] = cap group SAR, HCT116 cell line, maximum concentration of 40 μM, read-out: IC50
[13] = Table 4, growth inhibition, unit inferred, read-out: IC50 H522

Row | IC50 (HCT116 cells; [12]) [µM] | IC50 [1, 13] [µM] | IC50 [2] [µM] | IC50 [3] [µM] | IC50 [4] [µM] | IC50 [5] [µM] | Structure (SMILES) | TGI (sixty cell lines [6]) [µM] | PARP1 cleavage (cleaved PARP1) (PARP1) | further results
1 | 2.18 | 3.23 ± 0.41 | 2.28 ± 0.47 | 3.29 ± 0.46 | 3.65 ± 0.11 | 0.81 ± 0.1 | COc1ccc2sc(NC(=O)CCCCCCNC(=O)C(O)(O)C(F)(F)F)nc2c1 [Compound 83, N-(5-methoxybenzo[d]thiazol-2-yl)-7-(3,3,3-trifluoro-2,2-dihydroxypropanamido)heptanamide] | 12.3 | Dose-dependent elevation of cleaved PARP1 was detectable | –
2 | 10.1 | – | – | – | – | – | O=C(CCCCCCC(=O)C(F)(F)F)Nc1ccccc1 [Compound 91, reference compound] | – | – | time to complete disappearance (metabolic reduction) of parent M+1 peak ([7]; NADPH, 37° C., LC-ESI-MS, aliquots every 15 minutes): ≤ 15 min; metabolic reduction to the alcohol ([7]; result in words): quantitative biological reduction; half-life [8]: less than 30 minutes
3 | 4.52 | – | – | – | – | – | COc1ccc(NC(=O)CCCCCCNC(=O)C(O)(O)C(F)(F)F)cc1 [Compound 55, N-(4-methoxyphenyl)-7-(3,3,3-trifluoro-2,2-dihydroxypropanamido)heptanamide] | – | – | IC50 (HCT116 cells; cancer vs normal cells study, FIG. 14A, maximum 30 μM, read-out: IC50 HCT116): 3.13 µM; cell survival HCT116 (HCT116 cells; maximum concentration of 30 μM, FIG. 14B): < 20%; IC50 ([1]; cancer vs normal cells study, FIG. 14A, maximum 30 μM, read-out: IC50 NCI-H522): 8.05 µM; IC50 (WI38 cells): > 30 µM; IC50 (RPE cells): > 30 µM
4 | – | – | – | – | – | – | COc1ccc(-c2cnc(NC(=O)CCCCCCNC(=O)C(O)(O)C(F)(F)F)s2)cc1 [Compound 84, N-(5-(4-methoxyphenyl)thiazol-2-yl)-7-(3,3,3-trifluoro-2,2-dihydroxypropanamido)heptanamide] | 8.51 | Absence of PARP1 cleavage | cytostatic / cytotoxic activity in NCI 60 assays (sixty cell lines [9]): cytotoxic effects; levels of acetylated H3 [10]: increased levels; levels of pan-acetyl-lysine [10]: increased levels
5 | 2.37 | 2.86 ± 0.36 | 2.65 ± 0.21 | 1.41 ± 0.18 | 1.31 ± 0.18 | 1.83 ± 0.35 | O=C(CCCCCCNC(=O)C(O)(O)C(F)(F)F)Nc1nc2ccccc2s1 [Compound 61, N-(benzo[d]thiazol-2-yl)-7-(3,3,3-trifluoro-2,2-dihydroxypropanamido)heptanamide] | 21.37 | – | IC50 [11]: 1.52 ± 0.23 µM

From patent publication US20240360089A1, “Metabolically Stable HDAC Inhibitors with Trifluoromethylpyruvamide as Metal-Binding Group” (The University of Toledo, priority 2023, published 2024)
